Data published in US12384800B2, “Antitumoral compounds” (priority 2017, dated 2025).
Where two headings read alike, the source gives them in different places.

Assays:
[1] = system: MDA-MB-231 cells (breast adenocarcinoma); assay: cells; details: for CC50: read-out: LC50
Outline: (§1)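 Cells seeded at 5000/well, attached 18 h, then exposed 72 h to ten 2/5 serial dilutions (10 to 0.003 μg/mL; 1% DMSO final) in triplicate; time-zero plate fixed. SRB staining after glutaraldehyde fixation; growth effects by NCI algorithm, four-parameter logistic fit.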

[2] = system: PSN1 cells (pancreas adenocarcinoma); assay: cells; details: for CC50: read-out: LC50
Outline: as §1

[3] = system: HT29 cells (colorectal adenocarcinoma); assay: cells; details: for CC50: read-out: LC50
Outline: as §1

[4] = system: A549 cells (lung carcinoma, NSCLC); assay: cells; details: for CC50: read-out: LC50
Outline: as §1

[5] = MTD (Maximum Tolerated Dose) determination, single iv administration; format: in vivo; details: female, mouse, in vivo; mice; iv/SD (single dose); monitored up to 14 days
Excerpt: (§2) Female CD-1 or Athymic Nude-Fox1 nu/nu mice (Envigo) were utilized for all experiments. […] Animals were acclimated for five days prior to being individually tattoo-identified. Animal protocols were reviewed and approved according to the regional Institutional Animal Care and Use Committees.
(§3) Mice were randomly allocated into experimental groups and intravenously administered, once for the MTD (Maximum Tolerated Dose) determination or one administration a week during three consecutive weeks, for the MTMD (Maximum Tolerated Multiple Dose) determination study. The animals were administered with white formulation or with compound dissolved in the experimental formulation at different concentrations. The volume administered was always […]. Once administered, animals were monitored for clinical signs of systemic toxicity, changes in body weight and mortality up to 14 days after the administration.

[6] = MTMD (Maximum Tolerated Multiple Dose) determination, iv weekly x 3; format: in vivo; details: mice; iv/Q7d × 3
Excerpt: as §2, §3

HT1080 tumors = assay: Human fibrosarcoma xenograft, total diameter (tumor + leg)
Experimental: Female athymic nu/nu mice (Harlan Laboratories Models, S.L. Barcelona, Spain or Envigo, Spain) were utilized for all experiments. Animal were housed in individually ventilated cages Sealsafe® Plus, Techniplast S.P.A.), up to ten per cage on a 12-hour light-dark cycle at 21-23° C. and 40-60% humidity. […] Animals were acclimated for at least 5 days prior to tumor implantation with a tumor cell suspension.
HT1080 cells were maintained in vitro at 37° C. with 5% CO2 in Minimum Essential Medium Eagle (MEME) (Sigma-Aldrich, Co). Each animal was orthotopically implanted into gastroecnemius muscle by an intramuscular injection using a 26G needle and a 1 cc syringe at 4-6 weeks of age, with 10×10^6 HT1080 cells, suspended in serum free medium, without antibiotics.
Treatment tolerability was assessed by monitoring body weight evolution, clinical signs of systemic toxicity, as well as evidences of local damage in the injection site.
In xenograft studies with HT1080 cell line: • Total diameter (tumor+leg) measurements were determined by using digital caliper (Fowler Sylvac, S235PAT).
Treatments producing >20% lethality and/or 20% net body weight loss were considered toxic.

B16 melanoma = details: U.S. Pat. No. 5,149,804; cited from earlier work
Lewis lung carcinoma = details: U.S. Pat. No. 5,149,804; cited from earlier work
P388 lymphoma = details: U.S. Pat. No. 5,149,804; cited from earlier work

## COc1ccc2[nH]c3c(c2c1)C[C@@H](CO)N[C@]31CS[C@@H]2c3c(OC(C)=O)c(C)c4c(c3[C@H](COC1=O)N1[C@@H]2[C@H]2c3c(cc(C)c(OC)c3O)C[C@@H]([C@@H]1O)N2C)OCO4 [Compound 19-S]
[1]; Homo sapiens, MDA-MB-231, 72 h
  GI50: 1.96 nM
  CC50: 11 nM
[1]; Homo sapiens, MDA-MB-231, 72 h, read-out: TGI
  IC (total growth inhibition): 0.00331 µM
[2]; Homo sapiens, PSN1, 72 h
  GI50: 2.95 nM
  CC50: > 123 nM
[2]; Homo sapiens, PSN1, 72 h, read-out: TGI
  IC (total growth inhibition): 0.00319 µM
[3]; Homo sapiens, HT-29, 72 h
  GI50: 1.35 nM
  CC50: > 123 nM
[3]; Homo sapiens, HT-29, 72 h, read-out: TGI
  IC (total growth inhibition): 0.0016 µM
[4]; Homo sapiens, A549, 72 h
  GI50: 3.07 nM
  CC50: > 123 nM
[4]; Homo sapiens, A549, 72 h, read-out: TGI
  IC (total growth inhibition): 0.00331 µM
[5]
  MTD at 14 days: 0.5 mg/kg
[6]
  MTMD: 0.75 mg/kg

## COc1c(C)cc2c(c1O)[C@@H]1[C@@H]3[C@@H]4SC[C@]5(N[C@@H](C)Cc6c5[nH]c5ccccc65)C(=O)OC[C@@H](c5c6c(c(C)c(OC(C)=O)c54)OCO6)N3[C@@H](O)[C@H](C2)N1C [Compound D]
[1]; MDA-MB-231, 72 hours treatment, SRB
  GI50: 9.88 nM
[1]; MDA-MB-231, total cell growth inhibition, 72 hours, SRB
  TGI: 1.95E−08 Molar
[1]; MDA-MB-231, 50% net cell killing, 72 hours, SRB
  CC50: 53.3 nM
[2]; PSN1, 72 hours treatment, SRB
  GI50: 20.8 nM
[2]; PSN1, total cell growth inhibition, 72 hours, SRB
  TGI: 2.21E−08 Molar
[2]; PSN1, 50% net cell killing, 72 hours, SRB
  CC50: 24.7 nM
[3]; HT29, 72 hours treatment, SRB
  GI50: 10.3 nM
[3]; HT29, total cell growth inhibition, 72 hours, SRB
  TGI: 2.34E−08 Molar
[3]; HT29, 50% net cell killing, 72 hours, SRB
  CC50: > 130 nM
[4]; A549, 72 hours treatment, SRB
  GI50: 12.5 nM
[4]; A549, total cell growth inhibition, 72 hours, SRB
  TGI: 2.86E−08 Molar
[4]; A549, 50% net cell killing, 72 hours, SRB
  CC50: > 130 nM
[6]
  MTMD: 0.5 mg/kg
HT1080 tumors; Day 0
  Total diameter (tumor + leg): 7.5 mm
HT1080 tumors; Day 0, iv Days 0, 7 and 14, PM01183 […], Compound D 0.5 mg/kg
  Total diameter (tumor + leg): 7.7 mm
HT1080 tumors; Day 2
  Total diameter (tumor + leg): 8.2 mm
HT1080 tumors; Day 2, iv Days 0, 7 and 14, PM01183 […], Compound D 0.5 mg/kg
  Total diameter (tumor + leg): 9.5 mm
HT1080 tumors; Day 5
  Total diameter (tumor + leg): 7.5 mm
HT1080 tumors; Day 5, iv Days 0, 7 and 14, PM01183 […], Compound D 0.5 mg/kg
  Total diameter (tumor + leg): 8.8 mm
HT1080 tumors; Day 7
  Total diameter (tumor + leg): 7.4 mm
HT1080 tumors; Day 7, iv Days 0, 7 and 14, PM01183 […], Compound D 0.5 mg/kg
  Total diameter (tumor + leg): 8.7 mm
HT1080 tumors; Day 9
  Total diameter (tumor + leg): 8.1 mm
HT1080 tumors; Day 9, iv Days 0, 7 and 14, PM01183 […], Compound D 0.5 mg/kg
  Total diameter (tumor + leg): 9.4 mm
HT1080 tumors; Day 12
  Total diameter (tumor + leg): 7.9 mm
HT1080 tumors; Day 12, iv Days 0, 7 and 14, PM01183 […], Compound D 0.5 mg/kg
  Total diameter (tumor + leg): 9.4 mm
HT1080 tumors; Day 14
  Total diameter (tumor + leg): 7.7 mm
HT1080 tumors; Day 14, iv Days 0, 7 and 14, PM01183 […], Compound D 0.5 mg/kg
  Total diameter (tumor + leg): 10.1 mm
HT1080 tumors; Day 16
  Total diameter (tumor + leg): 8.8 mm
HT1080 tumors; Day 16, iv Days 0, 7 and 14, PM01183 […], Compound D 0.5 mg/kg
  Total diameter (tumor + leg): 10.9 mm
HT1080 tumors; Day 19
  Total diameter (tumor + leg): 10.2 mm
HT1080 tumors; Day 19, iv Days 0, 7 and 14, PM01183 […], Compound D 0.5 mg/kg
  Total diameter (tumor + leg): 11.2 mm
HT1080 tumors; Day 21
  Total diameter (tumor + leg): 11.2 mm
HT1080 tumors; Day 21, iv Days 0, 7 and 14, PM01183 […], Compound D 0.5 mg/kg
  Total diameter (tumor + leg): 12.1 mm
HT1080 tumors; Day 23
  Total diameter (tumor + leg): 12.2 mm
HT1080 tumors; Day 23, iv Days 0, 7 and 14, Compound D 0.5 mg/kg
  Total diameter (tumor + leg): 13.0 mm
HT1080 tumors; Day 26, iv Days 0, 7 and 14, Compound D 0.5 mg/kg
  Total diameter (tumor + leg): 15.0 mm
HT1080 tumors; Day 27
  Total diameter (tumor + leg): 13.2 mm
HT1080 tumors; Day 28, iv Days 0, 7 and 14, Compound D 0.5 mg/kg
  Total diameter (tumor + leg): 18.0 mm
HT1080 tumors; Day 30
  Total diameter (tumor + leg): 14.6 mm
HT1080 tumors; Day 33
  Total diameter (tumor + leg): 16.3 mm
HT1080 tumors; Day 35
  Total diameter (tumor + leg): 18.0 mm

## COc1c(C)cc2c(c1O)[C@@H]1[C@@H]3[C@@H]4SC[C@]5(NCCc6c5[nH]c5ccccc65)C(=O)OC[C@@H](c5c6c(c(C)c(OC(C)=O)c54)OCO6)N3[C@@H](O)[C@H](C2)N1C [ET-736, Ecteinascidin 736]
B16 melanoma
  protection of mice in vivo: protects mice in vivo at very low concentrations
Lewis lung carcinoma
  protection of mice in vivo: protects mice in vivo at very low concentrations
[6]
  MTMD: 0.5 mg/kg
P388 lymphoma
  protection of mice in vivo: protects mice in vivo at very low concentrations
